# Experimental data taken from patent US20260158014A1, “METHODS OF ADMINISTERING VOXELOTOR” (Global Blood Therapeutics, Inc., priority 2021, published 2026).
# Test: Effect of food (high-fat, high-calorie meal)
# Type: in vivo
# Settings: high-calorie meal vs fasted
smiles,measurement,value
"CC(C)n1nccc1-c1ncccc1COc1cccc(O)c1C=O [voxelotor, 2-hydroxy-6-((2-(1-isopropyl-1H-pyrazol-5-yl)pyridin-3-yl)methoxy)benzaldehyde]","increase in AUC with food, plasma",42%
same,"increase in AUC with food, whole blood",42%
same,"increase in Cmax with food, plasma",95%
same,"increase in Cmax with food, whole blood",45%
